Test results published in patent US8916599B2, “1H-benz imidazole-5-carboxamides as anti-inflammatory agents” (Orexo AB, priority 2008, dated 2014).

Each compound was assayed against T1, recombinant human mPGES-1 (Homo sapiens, UniProt O14684) (assay: mPGES-1 inhibition test (microsomes, PGH2 substrate, HTRF detection of PGE2)). Conditions: inhibition of mPGES-1 at 10 μM.
T1 construct: made in house; host or cells: Rosetta E. coli (microsomal/membrane fraction)
T1 sequence (O14684 1-152): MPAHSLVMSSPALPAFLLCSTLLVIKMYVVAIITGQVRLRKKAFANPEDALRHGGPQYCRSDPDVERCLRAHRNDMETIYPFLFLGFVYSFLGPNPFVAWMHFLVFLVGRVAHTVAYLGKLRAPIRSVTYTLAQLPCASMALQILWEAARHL
Assay type: biochemical
How it was run: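 PGE2 formed from PGH2 in one minute by E. coli-expressed microsomal enzyme (pH 7.4, 2.5 mM GSH) was measured by competitive HTRF against a synthetic PGE2 standard curve. Compounds were preincubated 25 min at room temperature.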

SMILES | inhibition at 10 µM
CCCCCCCCNC(=O)c1cc2nc(Nc3c(Cl)cccc3Cl)n(C)c2cc1F [Example 166, 2-(2,6-Dichloro-phenylamino)-6-fluoro-1-methyl-1H-benzimidazole-5-carboxylic acid octylamide] | 100%
O=C(N[C@H]1CC[C@@H](C(F)(F)F)CC1)c1ccc2[nH]c(Nc3c(Cl)cccc3Cl)nc2c1 [Example 168, 2-(2,6-Dichloro-phenylamino)-1H-benzimidazole-5-carboxylic acid (cis-4-trifluoromethyl-cyclohexyl)-amide] | 100%
O=C(N[C@H]1CC[C@@H](C(F)(F)F)CC1)c1cc2nc(Nc3c(Cl)cccc3Cl)[nH]c2cc1F [Example 169, 2-(2,6-Dichloro-phenylamino)-6-fluoro-1H-benzimidazole-5-carboxylic acid (cis-4-trifluoromethyl-cyclohexyl)-amide] | 94%
Cn1c(Nc2c(Cl)cccc2Cl)nc2cc(C(=O)N[C@H]3CC[C@@H](C(F)(F)F)CC3)c(F)cc21 [Example 170, 2-(2,6-Dichloro-phenylamino)-6-fluoro-1-methyl-1H-benzimidazole-5-carboxylic acid (cis-4-trifluoromethyl-cyclohexyl)-amide] | 100%
Cn1c(Nc2c(F)cccc2F)nc2cc(C(=O)N[C@H]3CC[C@H](C(F)(F)F)CC3)ccc21 [Example 171, 2-(2,6-Difluoro-phenylamino)-1-methyl-1H-benzimidazole-5-carboxylic acid (trans-4-trifluoromethyl-cyclohexyl)-amide] | 94%
Cn1c(Nc2c(F)cccc2F)nc2cc(C(=O)Nc3ccc(Br)cc3)ccc21 [Example 173, 2-(2,6-Difluoro-phenylamino)-1-methyl-1H-benzimidazole-5-carboxylic acid (4-bromo-phenyl)-amide] | 97%
COCCn1c(Nc2c(Cl)cccc2Cl)nc2cc(C(=O)Nc3cccc(Cl)c3)ccc21 [Example 181, 2-(2,6-Dichloro-phenylamino)-1-(2-methoxy-ethyl)-1H-benzimidazole-5-carboxylic acid (3-chloro-phenyl)-amide] | 100%
Cc1cc(NC(=O)c2ccc3[nH]c(Nc4c(Cl)cccc4Cl)nc3c2)ncc1Br [Example 182, 2-(2,6-Dichloro-phenylamino)-1H-benzimidazole-5-carboxylic acid (5-bromo-4-methyl-pyridin-2-yl)-amide] | 99%
Cc1cc(Br)cnc1NC(=O)c1ccc2[nH]c(Nc3c(Cl)cccc3Cl)nc2c1 [Example 183, 2-(2,6-Dichloro-phenylamino)-1H-benzimidazole-5-carboxylic acid (5-bromo-3-methyl-pyridin-2-yl)-amide] | 100%
O=C(Nc1ncccc1C(F)(F)F)c1ccc2[nH]c(Nc3c(Cl)cccc3Cl)nc2c1 [Example 190, 2-(2,6-Dichloro-phenylamino)-1H-benzimidazole-5-carboxylic acid (3-trifluoromethyl-pyridin-2-yl)-amide] | 75%
Cc1cc(NC(=O)c2ccc3nc(Nc4c(Cl)cccc4Cl)[nH]c3c2)ccn1 [Example 193, 2-(2,6-Dichloro-phenylamino)-3H-benzimidazole-5-carboxylic acid (2-methyl-pyridin-4-yl)-amide] | 99%
COc1cccc(NC(=O)c2ccc3nc(Nc4c(Cl)cccc4Cl)[nH]c3c2)n1 [Example 194, 2-(2,6-Dichloro-phenylamino)-3H-benzimidazole-5-carboxylic acid (6-methoxy-pyridin-2-yl)-amide] | 98%

Continued, values first:

inhibition at 10 µM | SMILES
93% | Cn1c(Nc2c(Cl)cccc2Cl)nc2cc(C(=O)Nc3ccc(Br)cc3)c(F)cc21 [Example 167, 2-(2,6-Dichloro-phenylamino)-6-fluoro-1-methyl-1H-benzimidazole-5-carboxylic acid (4-bromo-phenyl)-amide]
97% | Cn1c(Nc2c(F)cccc2F)nc2cc(C(=O)NC3CCC(C)(C)CC3)ccc21 [Example 172, 2-(2,6-Difluoro-phenylamino)-1-methyl-1H-benzimidazole-5-carboxylic acid (4,4-dimethyl-cyclohexyl)-amide]
100% | C[C@@H]1CCC(NC(=O)c2cc3nc(Nc4c(Cl)cccc4Cl)n(C)c3cc2F)C1 (stereo partly drawn) [Example 175, 2-(2,6-Dichloro-phenylamino)-6-fluoro-1-methyl-1H-benzimidazole-5-carboxylic acid ((3R)-3-methyl-cyclopentyl)-amide]
98% | COCCn1c(Nc2c(Cl)cccc2Cl)nc2cc(C(=O)NC3CCC(C)(C)CC3)ccc21 [Example 180, 2-(2,6-Dichloro-phenylamino)-1-(2-methoxy-ethyl)-1H-benzimidazole-5-carboxylic acid (4,4-dimethyl-cyclohexyl)-amide]
98% | O=C(Nc1cc(Br)ccn1)c1ccc2[nH]c(Nc3c(Cl)cccc3Cl)nc2c1 [Example 184, 2-(2,6-Dichloro-phenylamino)-1H-benzimidazole-5-carboxylic acid (4-bromo-pyridin-2-yl)-amide]
98% | O=C(Nc1cccc(Cl)n1)c1ccc2[nH]c(Nc3c(Cl)cccc3Cl)nc2c1 [Example 185, 2-(2,6-Dichloro-phenylamino)-1H-benzimidazole-5-carboxylic acid (6-chloro-pyridin-2-yl)-amide]
91% | O=C(Nc1ncccc1Cl)c1ccc2[nH]c(Nc3c(Cl)cccc3Cl)nc2c1 [Example 186, 2-(2,6-Dichloro-phenylamino)-1H-benzimidazole-5-carboxylic acid (3-chloro-pyridin-2-yl)-amide]
98% | O=C(Nc1cc(Cl)nc(Cl)c1)c1ccc2[nH]c(Nc3c(Cl)cccc3Cl)nc2c1 [Example 187, 2-(2,6-Dichloro-phenylamino)-1H-benzimidazole-5-carboxylic acid (2,6-dichloro-pyridin-4-yl)-amide]
96% | COc1ccnc(NC(=O)c2ccc3[nH]c(Nc4c(Cl)cccc4Cl)nc3c2)c1 [Example 188, 2-(2,6-Dichloro-phenylamino)-1H-benzimidazole-5-carboxylic acid (4-methoxy-pyridin-2-yl)-amide]
94% | Cc1cc(NC(=O)c2ccc3[nH]c(Nc4c(Cl)cccc4Cl)nc3c2)ncc1F [Example 189, 2-(2,6-Dichloro-phenylamino)-1H-benzimidazole-5-carboxylic acid (5-fluoro-4-methyl-pyridin-2-yl)-amide]
99% | O=C(Nc1ccc(C(F)(F)F)cn1)c1ccc2[nH]c(Nc3c(Cl)cccc3Cl)nc2c1 [Example 191, 2-(2,6-Dichloro-phenylamino)-1H-benzimidazole-5-carboxylic acid (5-trifluoromethyl-pyridin-2-yl)-amide]
100% | O=C(Nc1ccc(Br)cn1)c1ccc2nc(Nc3c(F)cccc3Cl)[nH]c2c1 [Example 192, 2-(2-Chloro-6-fluoro-phenylamino)-3H-benzimidazole-5-carboxylic acid (5-bromo-pyridin-2-yl)-amide]
92% | COc1ccc(NC(=O)c2ccc3nc(Nc4c(Cl)cccc4Cl)[nH]c3c2)nc1 [Example 195, 2-(2,6-Dichloro-phenylamino)-3H-benzimidazole-5-carboxylic acid (5-methoxy-pyridin-2-yl)-amide]
100% | COc1cc2nc(Nc3c(Cl)cccc3Cl)[nH]c2cc1C(=O)Nc1ccc(Cl)c(F)c1 [Example 197]
